The source of these data is patent US20090047655A1, “Method Of Screening Candidate Drug” (priority 2004, published 2009).

Series [1] in a line: in vivo. The conditions noted are these: for t 1/2 Distribution phase / half-life / AUC / bioavailability / Cmax: mouse, in vivo. The text has this:
(§1) As for the chimeric mice, chimeric mice produced by Hiroshima Prefectural Institute of Industrial Science and Technology or PhoenixBio Co., Ltd. were used. To be more specific, mice in which human hepatocytes were engrafted and proliferated in the mouse liver were produced by transplanting human hepatocytes (IVT079, purchased from In Vitro Technology Inc., or BD51, purchased from BD Gentest Inc.) into the spleen of uPA(+/+)/SCID mice, which are mice having hepatic impairment and immunodeficiency. Mice in which 70% or more of the mouse liver had been replaced with human hepatocytes (high-replacement chimeric mice) and low-replacement chimeric mice in which although human hepatocytes had been transplanted, the replacement ratio was almost 0%, or untransplanted mice (mice with no replacement) were used (3 mice in each group). Further, as a control, 3 uPA(−/−)/SCID mice were used.
(§2) The concentration for administration of tolbutamide which is a standard drug for CYP2C9 was […]., and 4.175 mg of tolbutamide was weighed out and suspended in 1 ml of a CMC liquid in an agate mortar, and a 4.175 mg/ml suspension which is 5 times as high as the concentration for administration was prepared.
(§3) To the high-replacement chimeric mice, low-replacement chimeric mice (or mice with no replacement) and uPA(−/−)/SCID mice (3 mice in each group), 5 compounds were simultaneously administered orally by gavage or intravenously. The blood was collected from the tail vein of each mouse in an amount of 15 μl each at 0.25 (only intravenous administration), 0.5, 1, 2, 4 (only oral administration) and 8 hours after administration. Then, the blood was centrifuged at 3,500 rpm for 5 minutes, and the serum (supernatant) was collected and stored in a freezer at −30° C.
(§4) The serum samples were transported to Sumika Chemical Analysis Service, Ltd. while keeping it in dry ice, and subjected to measurement by LC-MS/MS according to the following procedure.
(§5) With regard to a liquid chromatograph, SIL-HTC and LC-10A series (Shimadzu Corporation) were used, and as a column, Synergi 4μ Polar-RP 80A, 150 mm (length)×2.00 mm (inner diameter), 4 μm (Phenomenex Inc.) was used at 30° C. As a mobile phase, methanol/a 10 mmol/l ammonium acetate solution/acetic acid (700/300/2, v/v/v) was used, and a flow rate was set at 0.2 ml/min. An injection volume was set at 2 μl, a measurement time was set at 10 min, and the temperature of an autosampler was set at 4° C. As a mass spectrometer, Tandem Mass Spectrometer API 4000 (Applied Biosystems/MDS SCIEX Inc.) was used. As API interface, Turbo V (ESI probe) was used, and as Ionization mode, Positive ion detection mode was used.
To Eppendorf tubes in which 5 μl of samples to be measured (serum) were contained, 100 μl of methanol was added, and 10 μl of 1 μg/ml of I.S. standard solution was added thereto, and then, the mixtures were thoroughly mixed by an ultrasonic treatment and a vortex mixer. The resulting mixtures were centrifuged (15,000 rpm, 5 min, room temperature), and the resulting supernatants were subjected to centrifugal filtration (10,000 rpm, 2 min, room temperature) with a filter, and the resulting filtrates were used as injection samples for LC-MS/MS.
(§6) The determined values of the drug concentration in the serum were calculated from the peak area ratio obtained by the LC-MS/MS measurement of the samples for addition calibration curve. […] From the graphs, the peak serum concentration (Cmax), half-life (t1/2), area under the curve (AUC), bioavailability and clearance were analyzed, and pharmacokinetics in human was predicted.

For series [2], the system named is CYP2D6. The series is described as follows: in vivo. The conditions noted are these: uPA(+/+)/SCID, po. The method, then: As for the chimeric mice, chimeric mice produced in PhoenixBio Co., Ltd. were used. To be more specific, 3 mice in which human hepatocytes were engrafted and proliferated in the mouse liver were produced by transplanting human hepatocytes (BD51, purchased from BD Gentist Inc.) into the spleen of uPA(+/+)/SCID mice, which are mice having hepatic impairment and immunodeficiency.
Paroxetine was dissolved in Milli-Q water (using a bath-type ultrasonic device) and prepared to give a final concentration of 6 mg/ml. The prepared drug was intraperitoneally administered to the mice at a dose of 5 μl/g b.w. (30 mg/kg b.w./day).
To the high-replacement chimeric mice, paroxetine was intraperitoneally administered for 3 days. Then, in the same manner as in Example 1, 5 compounds were simultaneously administered orally by gavage, the blood was collected over time, and the serum was stored.
The determination and analysis of drugs in the serum were carried out in the same manner as in Example 1.
The determined values of the drug concentration in the serum were calculated from the peak area ratio obtained by the LC-MS/MS measurement of the samples for addition calibration curve. […] From the graphs, Cmax, t1/2 and AUC were analyzed.

For series [3] the following is noted: mouse, in vivo; for AUC: uPA(+/+)/SCID.
From the text: as §1, §2, §3, §4, §5
To Eppendorf tubes in which 5 μl of samples to be measured (serum) were contained, 100 μl of methanol was added, and 10 μl of 1 μg/ml of I.S. standard solution was added thereto, and then, the mixtures were thoroughly mixed by an ultrasonic treatment and a vortex mixer. […]
as §6

Setting [4] is: uPA(+/+)/SCID, po, t 1/2 Distribution phase.
Setting [5] is: uPA(−/−)/SCID, iv, t 1/2 Distribution phase.
Where [6] appears, read: uPA(−/−)/SCID, iv, t 1/2 Elimination phase.
[7] abbreviates: mouse, t 1/2 Distribution phase.

Read-outs that look alike come from different tables or passages of the source.

`Cn1c(=O)c2c(ncn2C)n(C)c1=O` [Caffeine, caffeine]: the “t 1/2 Distribution phase” value was 0.437^#3 hr in series [1] (uPA(+/+)/SCID, iv) and 2.16^#3 hr in series [1] (uPA(+/+)/SCID, po). Also, the half-life (usually how long it takes for the measured level to halve) in series [1] (uPA(+/+)/SCID, iv, t 1/2 Distribution phase) was 0.809 h; in series [1] (setting [4]) it was 3.45 h; in series [1] (setting [5]), 0.609 h; in series [1] (setting [6]), 0.505 h; in series [1] (uPA(−/−)/SCID, po, t 1/2 Elimination phase), 0.82 h; in series [2] (setting [7]) it was 3.4 h. The AUC (usually the area under the concentration-time curve, a measure of exposure) in series [1] (uPA(−/−)/SCID, iv) is 4070 ng·h/mL; in series [1] (uPA(−/−)/SCID, po), 33200 ng·h/mL; in series [2] (mouse), 97100 ng·h/mL; in series [3], 65700 ng·h/mL. Further, the bioavailability (in general, the share of a dose that reaches the circulation, judged against a reference dose that is usually intravenous) in series [1] (uPA(−/−)/SCID, po) was determined as 81.6%. Further, the Cmax (usually the maximum level reached in the sampled fluid or tissue) in series [1] (uPA(−/−)/SCID, po) came to 8800 ng/mL. Also, the “AUC in high-replacement chimeric mice compared with low-replacement chimeric mice” value in series [3] is on record as “significantly lower”.

For `COc1ccc2c(c1)[C@]13CCCC[C@@H]1[C@H](C2)N(C)CC3` [Dextromethorphan, dextromethorphan], in series [1] (donor hepatocytes IVT079), the “AUC in high-replacement chimeric mice compared with low-replacement chimeric mice” value is on record as “significantly lower”. In addition, the AUC is 4030 ng·h/mL in series [1] (uPA(+/+)/SCID, iv, intravenous administration, high-replacement chimeric mouse, donor IVT079); 4600 ng·h/mL in series [1] (uPA(+/+)/SCID, iv, intravenous administration, low-replacement chimeric mouse, donor IVT079); 1020 ng·h/mL in series [1] (uPA(+/+)/SCID, po, oral administration, high-replacement chimeric mouse, donor IVT079); 3650 ng·h/mL in series [1] (uPA(+/+)/SCID, po, oral administration, low-replacement chimeric mouse, donor IVT079); 2610 ng·h/mL in series [1] (uPA(−/−)/SCID, iv, intravenous administration, uPA(−/−)/SCID mouse); 580 ng·h/mL in series [1] (uPA(−/−)/SCID, po, oral administration, uPA(−/−)/SCID mouse). The same molecule came in with an AUC in series [2] (in vivo) of 358 ng·h/mL. Further, the half-life is 3.15 h in series [1] (uPA(+/+)/SCID, iv, t 1/2 Distribution phase, intravenous administration, high-replacement chimeric mouse, donor IVT079, time window per footnote); 0.414 h in series [1] (uPA(+/+)/SCID, iv, t 1/2 Distribution phase, intravenous administration, low-replacement chimeric mouse, donor IVT079, time window per footnote); 1.23 h in series [1] (uPA(+/+)/SCID, iv, t 1/2 Elimination phase, intravenous administration, high-replacement chimeric mouse, donor IVT079, 2-8 hr); 1.5 h in series [1] (uPA(+/+)/SCID, iv, t 1/2 Elimination phase, intravenous administration, low-replacement chimeric mouse, donor IVT079, 2-8 hr); 1.15 h in series [1] (uPA(+/+)/SCID, po, t 1/2 Distribution phase, oral administration, high-replacement chimeric mouse, donor IVT079, time window per footnote); 2.88 h in series [1] (uPA(+/+)/SCID, po, t 1/2 Distribution phase, oral administration, low-replacement chimeric mouse, donor IVT079, time window per footnote). Further, the half-life in series [1] (uPA(+/+)/SCID, po, t 1/2 Elimination phase, oral administration, high-replacement chimeric mouse, donor IVT079, time window per footnote) was 10.4 h; in series [1] (uPA(+/+)/SCID, po, t 1/2 Elimination phase, oral administration, low-replacement chimeric mouse, donor IVT079, time window per footnote) it was 9.98 h; in series [1] (uPA(−/−)/SCID, iv, t 1/2 Distribution phase, intravenous administration, uPA(−/−)/SCID mouse, time window per footnote), 0.47 h; in series [1] (uPA(−/−)/SCID, po, t 1/2 Distribution phase, oral administration, uPA(−/−)/SCID mouse, time window per footnote), 2.45 h; in series [2] (in vivo, t 1/2 Distribution phase, high-replacement chimeric mouse, donor BD51, inhibitor paroxetine, time window per footnote), 1.44 h; in series [2] (in vivo, t 1/2 Elimination phase, high-replacement chimeric mouse, donor BD51, inhibitor paroxetine, time window per footnote) it was 5.29 h. The bioavailability was determined as 2.53% in series [1] (uPA(+/+)/SCID, po, high-replacement chimeric mouse, donor IVT079); 7.93% in series [1] (uPA(+/+)/SCID, po, low-replacement chimeric mouse, donor IVT079); 2.22% in series [1] (uPA(−/−)/SCID, po, uPA(−/−)/SCID mouse). Also, the Cmax in series [1] (uPA(+/+)/SCID, po, oral administration, high-replacement chimeric mouse, donor IVT079, serum) turned out to be 276 ng/mL; in series [1] (uPA(+/+)/SCID, po, oral administration, low-replacement chimeric mouse, donor IVT079, serum) it was 836 ng/mL; in series [1] (uPA(−/−)/SCID, po, oral administration, uPA(−/−)/SCID mouse, serum, dose per drug in table), 130 ng/mL; in series [2] (in vivo, 30 mg/kg/day) it was 156 ng/mL.

Consider `CC[C@H]1OC(=O)[C@H](C)[C@@H](O[C@H]2C[C@@](C)(OC)[C@@H](O)[C@H](C)O2)[C@H](C)[C@@H](O[C@@H]2O[C@H](C)C[C@H](N(C)C)[C@H]2O)[C@](C)(O)C[C@@H](C)C(=O)[C@H](C)[C@@H](O)[C@]1(C)O` [Erythromycin, erythromycin], for which the “t 1/2 Distribution phase” value in series [1] (uPA(+/+)/SCID, po) is 2.22^#3 hr. Also, the half-life in series [1] (setting [4]) was 4.38 h; in series [1] (setting [5]), 0.35 h; in series [1] (setting [6]), 1.1 h. For the same molecule, the AUC in series [1] (uPA(−/−)/SCID, iv) came to 13800 ng·h/mL; in series [1] (uPA(−/−)/SCID, po) it was 4080 ng·h/mL; in series [3], 21300 ng·h/mL. The bioavailability in series [1] (uPA(−/−)/SCID, po) was 2.95%. In series [1] (uPA(−/−)/SCID, po), the Cmax stood at 1000 ng/mL.

Consider `COc1ccc2[nH]c([S+]([O-])Cc3ncc(C)c(OC)c3C)nc2c1` (centres unmarked) [Omeprazole, omeprazole], for which the half-life in series [1] (uPA(+/+)/SCID, po, t 1/2 Elimination phase) was 1.03 h; in series [1] (setting [5]) it was 0.24 h; in series [1] (setting [6]), 0.971 h; in series [2] (setting [7]), 0.3 h; in series [2] (mouse, t 1/2 Elimination phase), 1.55 h. The AUC in series [1] (uPA(−/−)/SCID, iv) was determined as 840 ng·h/mL; in series [1] (uPA(−/−)/SCID, po), 114 ng·h/mL; in series [2] (mouse) it was 964 ng·h/mL; in series [3] it was 322 ng·h/mL. Also, the bioavailability in series [1] (uPA(−/−)/SCID, po) is 1.36%. Moreover, the highest concentration (Cmax) in series [1] (uPA(−/−)/SCID, po) is 94 ng/mL.
